Source: ChEMBL document CHEMBL1148176, “Polycyclic guanidine alkaloids from the marine sponge Crambe crambe and Ca++ channel blocker activity of crambescidin 816” (J Nat Prod, 1993)
Calls of active or inactive are those of the source. The rule behind the calls is not given here.

Key:
[1] = test system: Ephydatia fluviatilis; test: Inhibition of reaggregation of cells in Ephydatia fluviatilis; type: functional
[2] = test system: Poecilia reticulata; test: Toxicity against Lebistes reticulatus at 0.2 mg/l; type: organism-based; conditions: in vivo
[3] = biological target: L-type calcium channel (Mus musculus, UniProt Q01815+Q02789+Q99246+Q9JIS7); test: Antagonist activity at voltage-dependent L-type calcium channel in mouse neurobalstoma-rat glioma NG 108-15 hybrid cells assessed as inhibition of KCl-induced increase in intracellular calcium level pretreated for 3 mins before KCl challenge; type: functional, cell-based
[4] = test system: Ileum; test: Inhibition of acetylcholine-induced contraction in guinea pig ileum; type: functional, tissue-based; conditions: Cavia porcellus
[5] = test system: Jejunum; test: Inhibition of Sprague-Dawley rat jejunum contraction at 0.6 to 6.0 pM; type: functional, tissue-based
[6] = test system: Jejunum; test: Inhibition of acetylcholine-induced contraction in Sprague-Dawley rat jejunum pretreated for 3 mins before acetylcholine challenge; type: functional, tissue-based
[7] = Cytotoxicity against human HCT16 cells; type: functional, cell-based
[8] = test system: Jejunum; test: Inhibition of acetylcholine-induced contraction in Sprague-Dawley rat jejunum at 0.6 pM pretreated for 3 mins before acetylcholine challenge; type: functional
[9] = test system: Jejunum; test: Inhibition of acetylcholine-induced contraction in Sprague-Dawley rat jejunum at 6.0 pM pretreated for 3 mins before acetylcholine challenge; type: functional
[10] = test system: Jejunum; test: Inhibition of acetylcholine-induced contraction in Sprague-Dawley rat jejunum at 1.2 pM pretreated for 3 mins before acetylcholine challenge; type: functional

In the case of `CCCCCCCCCCC[C@@H]1N=C(N)N[C@]2(CCCO2)[C@@H]1C(=O)OCCCCCNC(=N)N.Cl` [CRAMBINE B], the Activity [1] is reported as 2 mM and the Activity [2] is reported as “Toxic”.

For `CCCCCCCCCCCC1N=C(N)NC(CCCO)=C1C(=O)OCCCCCNC(=N)N.Cl` (stereo not drawn) [CRAMBINE C1], the Activity [1] was 2.1 ×10⁻² M and the Activity [2] was “Toxic”.

With `CCCCCCCCCCCC1N=C(N)N2CCCC2=C1C(=O)OCCCCNC(=N)N.Cl` (stereo not drawn) [CRAMBINE A] the Activity [1] was 2.3 mM and the Activity [2] was “Toxic”.

For `COC(=O)C1=C(C)NC(C)=C(C(=O)OC)C1c1ccccc1[N+](=O)[O-]` [NIFEDIPINE], the IC50 [3] was 1.2 µM.

In the case of `CC[C@H]1C=CCC[C@]2(C[C@H]3CC[C@]4(O)[C@H](C(=O)OCCCCCCCCCCCCCCCC(=O)N(CCCN)C[C@@H](O)CCN)[C@@]5(CCC[C@@H](C)O5)NC(=[N+]34)N2)O1.[Cl-]` [CRAMBESCIDIN 816 HYDROCHLORIDE], the IC50 [3] is reported as 1.5 ×10⁻⁴ microM, the Activity ([3]; mouse) is reported as “Dose-dependent effect” and the Activity [4] is reported as “Active”. For the same molecule, the Activity [5] was “inactive”, the Activity [6] was “Dose-dependent effect” and the IC50 [7] was 0.24 µg/mL. For the same molecule, the Activity [1] was 1.2 mM, the Activity [2] was “Toxic” and the inhibition at 600 fM [8] was 18%. It also gave an inhibition at 6 pM [9] of 30% and an inhibition at 1.2 pM [10] of 25%.
